Test results: ChEMBL document CHEMBL3885881, “DrugMatrix”

Species: Rattus norvegicus
Test: DrugMatrix - Regimen: Daily Repeat
Assay type: toxicity, organism-based, Sprague-Dawley
Parameters: regimen Daily Repeat, gender Male, age 6-8 weeks
Details: in vivo, sc, route subcutaneous, […]; for BASOPHIL / EOSINOPHIL / ERYTHROCYTE COUNT / HEMATOCRIT / HEMOGLOBIN / LEUKOCYTE COUNT / LYMPHOCYTE / MEAN CORPUSCULAR HEMOGLOBIN / MEAN CORPUSCULAR HEMOGLOBIN CONCENTRATION / MEAN CORPUSCULAR VOLUME / MONOCYTE / NEUTROPHIL / PLATELET COUNT: tissue Blood; for ALANINE AMINOTRANSFERASE / ALBUMIN / ALKALINE PHOSPHATASE / ASPARTATE AMINOTRANSFERASE / BLOOD UREA NITROGEN / CARBON DIOXIDE / CHLORIDE / CHOLESTEROL / CREATININE / GLUCOSE / LACTATE DEHYDROGENASE / LIPASE / PHOSPHORUS / POTASSIUM / TOTAL BILIRUBIN / TOTAL PROTEIN / URIC ACID: tissue Plasma
[1] = 4 mg/kg, 72 h, dose level Low, time 3 day
[2] = 4 mg/kg, 120 h, dose level Low, time 5 day
[3] = 36 mg/kg, 72 h, dose level High, time 3 day
[4] = 36 mg/kg, 120 h, dose level High, time 5 day

SMILES: Nc1c2ccccc2nc2ccccc12 [AMINACRINE]
- BASOPHIL [1]: 0%
- EOSINOPHIL [1]: 0.67%
- ERYTHROCYTE COUNT [1]: 6.9 x10E6/uL
- HEMATOCRIT [1]: 42.07%
- HEMOGLOBIN [1]: 14.07 G/DL
- LEUKOCYTE COUNT [1]: 11.4 x10E3/uL
- LYMPHOCYTE [1]: 65.33%
- MEAN CORPUSCULAR HEMOGLOBIN [1]: 20.43 pg
- MEAN CORPUSCULAR HEMOGLOBIN CONCENTRATION [1]: 33.4 G/DL
- MEAN CORPUSCULAR VOLUME [1]: 61.1 fL
- MONOCYTE [1]: 8.67%
- NEUTROPHIL [1]: 25.67%
- PLATELET COUNT [1]: 1093.67 x10E3/uL
- ALANINE AMINOTRANSFERASE [1]: 44 u/L
- ALBUMIN [1]: 3.9 G/DL
- ALKALINE PHOSPHATASE [1]: 311.67 u/L
- ASPARTATE AMINOTRANSFERASE [1]: 81 u/L
- BLOOD UREA NITROGEN [1]: 14.67 mg/dL
- CARBON DIOXIDE [1]: 22.33 mmol/L
- CHLORIDE [1]: 106 MEQ/L
- CHOLESTEROL [1]: 68.33 mg/dL
- CREATININE [1]: 0.3 mg/dL
- GLUCOSE [1]: 144.67 mg/dL
- LACTATE DEHYDROGENASE [1]: 297.67 u/L
- LIPASE [1]: 8.67 u/L
- PHOSPHORUS [1]: 9.93 mg/dL
- POTASSIUM [1]: 5.93 MEQ/L
- TOTAL BILIRUBIN [1]: 0.1 mg/dL
- TOTAL PROTEIN [1]: 6 G/DL
- URIC ACID [1]: 0.93 mg/dL
- BASOPHIL [2]: 0.33%
- EOSINOPHIL [2]: 0%
- ERYTHROCYTE COUNT [2]: 6.82 x10E6/uL
- HEMATOCRIT [2]: 42.2%
- HEMOGLOBIN [2]: 13.8 G/DL
- LEUKOCYTE COUNT [2]: 13.23 x10E3/uL
- LYMPHOCYTE [2]: 62%
- MEAN CORPUSCULAR HEMOGLOBIN [2]: 20.2 pg
- MEAN CORPUSCULAR HEMOGLOBIN CONCENTRATION [2]: 32.67 G/DL
- MEAN CORPUSCULAR VOLUME [2]: 61.87 fL
- MONOCYTE [2]: 3%
- NEUTROPHIL [2]: 34.33%
- PLATELET COUNT [2]: 1028 x10E3/uL
- ALANINE AMINOTRANSFERASE [2]: 47 u/L
- ALBUMIN [2]: 3.4 G/DL
- ALKALINE PHOSPHATASE [2]: 316 u/L
- ASPARTATE AMINOTRANSFERASE [2]: 78.33 u/L
- BLOOD UREA NITROGEN [2]: 17.33 mg/dL
- CARBON DIOXIDE [2]: 22.67 mmol/L
- CHLORIDE [2]: 100.33 MEQ/L
- CHOLESTEROL [2]: 66.33 mg/dL
- CREATININE [2]: 0.3 mg/dL
- GLUCOSE [2]: 141.67 mg/dL
- LACTATE DEHYDROGENASE [2]: 188.67 u/L
- LIPASE [2]: 8 u/L
- PHOSPHORUS [2]: 9.9 mg/dL
- POTASSIUM [2]: 5.47 MEQ/L
- TOTAL BILIRUBIN [2]: 0.1 mg/dL
- TOTAL PROTEIN [2]: 6.13 G/DL
- URIC ACID [2]: 0.9 mg/dL
- BASOPHIL [3]: 0.33%
- EOSINOPHIL [3]: 0.33%
- ERYTHROCYTE COUNT [3]: 6.95 x10E6/uL
- HEMATOCRIT [3]: 42.07%
- HEMOGLOBIN [3]: 14.1 G/DL
- LEUKOCYTE COUNT [3]: 8.8 x10E3/uL
- LYMPHOCYTE [3]: 76%
- MEAN CORPUSCULAR HEMOGLOBIN [3]: 20.3 pg
- MEAN CORPUSCULAR HEMOGLOBIN CONCENTRATION [3]: 33.47 G/DL
- MEAN CORPUSCULAR VOLUME [3]: 60.57 fL
- MONOCYTE [3]: 3%
- NEUTROPHIL [3]: 20.33%
- PLATELET COUNT [3]: 1177.67 x10E3/uL
- ALANINE AMINOTRANSFERASE [3]: 44.33 u/L
- ALBUMIN [3]: 3.27 G/DL
- ALKALINE PHOSPHATASE [3]: 226.33 u/L
- ASPARTATE AMINOTRANSFERASE [3]: 101.67 u/L
- BLOOD UREA NITROGEN [3]: 17 mg/dL
- CARBON DIOXIDE [3]: 22 mmol/L
- CHLORIDE [3]: 106 MEQ/L
- CHOLESTEROL [3]: 62 mg/dL
- CREATININE [3]: 0.3 mg/dL
- GLUCOSE [3]: 151 mg/dL
- LACTATE DEHYDROGENASE [3]: 142.33 u/L
- LIPASE [3]: 7.67 u/L
- PHOSPHORUS [3]: 9.3 mg/dL
- POTASSIUM [3]: 6 MEQ/L
- TOTAL BILIRUBIN [3]: 0.1 mg/dL
- TOTAL PROTEIN [3]: 6.07 G/DL
- URIC ACID [3]: 1.17 mg/dL
- BASOPHIL [4]: 0%
- EOSINOPHIL [4]: 0%
- ERYTHROCYTE COUNT [4]: 6.75 x10E6/uL
- HEMATOCRIT [4]: 41.37%
- HEMOGLOBIN [4]: 13.1 G/DL
- LEUKOCYTE COUNT [4]: 11.17 x10E3/uL
- LYMPHOCYTE [4]: 59.67%
- MEAN CORPUSCULAR HEMOGLOBIN [4]: 19.43 pg
- MEAN CORPUSCULAR HEMOGLOBIN CONCENTRATION [4]: 31.73 G/DL
- MEAN CORPUSCULAR VOLUME [4]: 61.3 fL
- MONOCYTE [4]: 4.33%
- NEUTROPHIL [4]: 35.67%
- PLATELET COUNT [4]: 1310.67 x10E3/uL
- ALANINE AMINOTRANSFERASE [4]: 40.67 u/L
- ALBUMIN [4]: 2.83 G/DL
- ALKALINE PHOSPHATASE [4]: 304.33 u/L
- ASPARTATE AMINOTRANSFERASE [4]: 111 u/L
- BLOOD UREA NITROGEN [4]: 17.33 mg/dL
- CARBON DIOXIDE [4]: 22 mmol/L
- CHLORIDE [4]: 101.67 MEQ/L
- CHOLESTEROL [4]: 48 mg/dL
- CREATININE [4]: 0.3 mg/dL
- GLUCOSE [4]: 157.67 mg/dL
- LACTATE DEHYDROGENASE [4]: 113.33 u/L
- LIPASE [4]: 7 u/L
- PHOSPHORUS [4]: 9 mg/dL
- POTASSIUM [4]: 5.17 MEQ/L
- TOTAL BILIRUBIN [4]: 0.1 mg/dL
- TOTAL PROTEIN [4]: 5.5 G/DL
- URIC ACID [4]: 0.97 mg/dL
